# Source: ChEMBL document CHEMBL1201862, “PubChem BioAssay data set” (2004)
#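 48-hour exposure; five concentrations; linearly interpolated endpoints. Here, GI50 denotes the concentration required for 50% inhibition of growth.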 Calls of active or inactive are those of the source. Rule as the data show it: active = GI50 up to about 1.1 µM and inactive = higher.
# Assays:
# Test in all cases: NCI anticancer screen, dose series, 48 h
# MDA-N = tested on: MDA-N
# HCT-116 = tested on: HCT-116
# SR = tested on: SR
# SF-539 = tested on: SF-539
# ACHN = tested on: ACHN
# SNB-19 = tested on: SNB-19
# SN12C = tested on: SN12C
# MDA-MB-231 = tested on: MDA-MB-231
# NCI/ADR-RES = tested on: NCI/ADR-RES
# EKVX = tested on: EKVX
# TK-10 = tested on: TK-10
# OVCAR-8 = tested on: OVCAR-8
# MCF7 = tested on: MCF7
# M14 = tested on: M14
# SNB-75 = tested on: SNB-75
# DU-145 = tested on: DU-145
# CCRF-CEM = tested on: CCRF-CEM
# NCI-H23 = tested on: NCI-H23
# HCC 2998 = tested on: HCC 2998
# A498 = tested on: A498
SMILES,GI50 (MDA-N),GI50 (HCT-116),GI50 (SR),GI50 (SF-539),GI50 (ACHN),GI50 (SNB-19),GI50 (SN12C),GI50 (MDA-MB-231),GI50 (NCI/ADR-RES),GI50 (EKVX),GI50 (TK-10),GI50 (OVCAR-8),GI50 (MCF7),GI50 (M14),GI50 (SNB-75),GI50 (DU-145),GI50 (CCRF-CEM),GI50 (NCI-H23),GI50 (HCC 2998),GI50 (A498)
Nc1cc2c3c(cccc3c1)C(=O)N(c1ccc(OCCN3CCCCC3)cc1)C2=O,18.5 µM (inactive),11.3 µM (inactive),14 µM (inactive),14 µM (inactive),15.9 µM (inactive),18.3 µM (inactive),15.9 µM (inactive),14.2 µM (inactive),19.2 µM (inactive),20.4 µM (inactive),16.5 µM (inactive),16.1 µM (inactive),19.1 µM (inactive),15.5 µM (inactive),14.6 µM (inactive),16.9 µM (inactive),21.2 µM (inactive),16.1 µM (inactive),19.9 µM (inactive),16 µM (inactive)
C[C@H]1COC2=C1C(=O)C(=O)c1c2ccc2c1CCCC2(C)C [CRYPTOTANSHINONE],1.61 µM (inactive),2.96 µM (inactive),3.42 µM (inactive),3.35 µM (inactive),3.6 µM (inactive),2.52 µM (inactive),4.37 µM (inactive),12 µM (inactive),2.79 µM (inactive),4.62 µM (inactive),8.18 µM (inactive),2.58 µM (inactive),2.22 µM (inactive),1.03 µM (active),0.881 µM (active),1.35 µM (inactive),4.31 µM (inactive),1.55 µM (inactive),2.48 µM (inactive),18.3 µM (inactive)
CC(C)(C)CC(N)=O,> 100 µM (inactive),> 100 µM (inactive),> 100 µM (inactive),> 100 µM (inactive),> 100 µM (inactive),> 100 µM (inactive),> 100 µM (inactive),> 100 µM (inactive),> 100 µM (inactive),> 100 µM (inactive),> 100 µM (inactive),> 100 µM (inactive),> 100 µM (inactive),> 100 µM (inactive),> 100 µM (inactive),> 100 µM (inactive),> 100 µM (inactive),> 100 µM (inactive),> 100 µM (inactive),> 100 µM (inactive)
Cc1nn(-c2cc(Cl)ccc2[N+](=O)[O-])c(C)c1Cl,> 100 µM (inactive),53.8 µM (inactive),> 100 µM (inactive),> 100 µM (inactive),> 100 µM (inactive),> 100 µM (inactive),> 100 µM (inactive),48 µM (inactive),55.8 µM (inactive),76 µM (inactive),> 100 µM (inactive),> 100 µM (inactive),> 100 µM (inactive),> 100 µM (inactive),86.5 µM (inactive),> 100 µM (inactive),37.5 µM (inactive),> 100 µM (inactive),38.6 µM (inactive),> 100 µM (inactive)
COc1cc2c(cc1O)CCN(C)[C@H]2Cc1ccc(Oc2c(O)c(OC)cc3c2C[C@H]2c4c(c(OC)c(OC)c(OC)c4-3)CCN2C)cc1 [THALIFABERIDINE],4.94 µM (inactive),2.99 µM (inactive),1.61 µM (inactive),5.9 µM (inactive),5.71 µM (inactive),6.34 µM (inactive),5.35 µM (inactive),3.04 µM (inactive),5.56 µM (inactive),5.92 µM (inactive),6.11 µM (inactive),4.16 µM (inactive),5.13 µM (inactive),5.4 µM (inactive),4.51 µM (inactive),6.34 µM (inactive),2.92 µM (inactive),6.41 µM (inactive),3.08 µM (inactive),7.41 µM (inactive)
C=C(CO)C(=O)OC1CC(=C)C2CC(O)C(C)C2C2OC(=O)C(=C)C12 (stereo not given),19.3 µM (inactive),33.2 µM (inactive),19.3 µM (inactive),18 µM (inactive),18.4 µM (inactive),22.9 µM (inactive),18.2 µM (inactive),20 µM (inactive),44.7 µM (inactive),40.9 µM (inactive),16.3 µM (inactive),27.3 µM (inactive),18.3 µM (inactive),17.3 µM (inactive),19 µM (inactive),42.5 µM (inactive),31.2 µM (inactive),> 100 µM (inactive),21.7 µM (inactive),39.6 µM (inactive)
COc1cc2c3c4c1OCc1c5c(cc(c1-4)CC3[N+](C)(C)CC2)OCO5 (stereo not given),> 100 µM (inactive),> 100 µM (inactive),49.8 µM (inactive),11.2 µM (inactive),> 100 µM (inactive),4.33 µM (inactive),3.21 µM (inactive),> 100 µM (inactive),> 80.5 µM (inactive),> 100 µM (inactive),> 100 µM (inactive),> 72.9 µM (inactive),> 100 µM (inactive),> 100 µM (inactive),26.7 µM (inactive),> 100 µM (inactive),> 100 µM (inactive),54.8 µM (inactive),> 100 µM (inactive),> 100 µM (inactive)
CCC(C)C(NC(=O)C(CCCC[N+](=N)N)NC(=O)C(CCCC[N+](=N)N)NC(=O)c1ccc(OC)cc1)C(=O)NC(CCCC[N+](=N)N)C(=O)N1CCCC1C(=O)NC(CCCCN)C(=O)NC(CC(C)C)C(N)=O (stereo not given),> 100 µM (inactive),> 100 µM (inactive),> 100 µM (inactive),> 100 µM (inactive),> 100 µM (inactive),> 100 µM (inactive),> 100 µM (inactive),> 100 µM (inactive),> 100 µM (inactive),> 100 µM (inactive),> 100 µM (inactive),> 100 µM (inactive),> 100 µM (inactive),> 100 µM (inactive),> 100 µM (inactive),> 100 µM (inactive),> 100 µM (inactive),> 100 µM (inactive),> 100 µM (inactive),> 100 µM (inactive)
CC(C)(Br)C(=O)N1CCN(C(c2ccccc2)c2ccccc2)CC1,> 100 µM (inactive),32.2 µM (inactive),66.2 µM (inactive),> 100 µM (inactive),> 100 µM (inactive),> 100 µM (inactive),84.9 µM (inactive),> 100 µM (inactive),> 100 µM (inactive),40.6 µM (inactive),> 100 µM (inactive),> 100 µM (inactive),24.3 µM (inactive),> 100 µM (inactive),> 100 µM (inactive),50.6 µM (inactive),49.2 µM (inactive),> 100 µM (inactive),> 100 µM (inactive),> 100 µM (inactive)
COc1ccc(C(=O)/C=C2\C(=O)Nc3ccc(Br)cc32)cc1,5.81 µM (inactive),4.05 µM (inactive),2.96 µM (inactive),7.93 µM (inactive),1.89 µM (inactive),16.7 µM (inactive),2.88 µM (inactive),5.57 µM (inactive),1.71 µM (inactive),13.6 µM (inactive),1.68 µM (inactive),2.07 µM (inactive),6.44 µM (inactive),12 µM (inactive),14.3 µM (inactive),7.48 µM (inactive),1.4 µM (inactive),4.27 µM (inactive),4.26 µM (inactive),17.9 µM (inactive)
Cc1ccc(S(=O)(=O)N/N=C2\CC3C4CCC3C2C4)cc1 (stereo not given),> 100 µM (inactive),> 100 µM (inactive),> 100 µM (inactive),> 100 µM (inactive),> 100 µM (inactive),> 100 µM (inactive),> 100 µM (inactive),> 100 µM (inactive),> 100 µM (inactive),> 100 µM (inactive),> 100 µM (inactive),> 100 µM (inactive),> 100 µM (inactive),> 100 µM (inactive),0.0859 µM (active),> 100 µM (inactive),> 100 µM (inactive),> 100 µM (inactive),> 100 µM (inactive),> 100 µM (inactive)
CC(=O)Oc1ccc2c(c1)c1c(=O)oc(C)nc1n2Cc1ccccc1,27.5 µM (inactive),40.5 µM (inactive),> 52.4 µM (inactive),27.5 µM (inactive),28.7 µM (inactive),69.8 µM (inactive),66.8 µM (inactive),33.7 µM (inactive),31.3 µM (inactive),> 53.5 µM (inactive),35.2 µM (inactive),37.2 µM (inactive),47.8 µM (inactive),40.3 µM (inactive),> 41.8 µM (inactive),> 55.7 µM (inactive),> 64.3 µM (inactive),> 63.5 µM (inactive),> 100 µM (inactive),23.4 µM (inactive)
CC[C@@]1(O)C(=O)OCc2c1cc1n(c2=O)Cc2cc3cc(OC)ccc3nc2-1,0.142 µM (active),0.0197 µM (active),0.00667 µM (active),0.0033 µM (active),0.00476 µM (active),0.00843 µM (active),0.0245 µM (active),0.0843 µM (active),0.073 µM (active),0.546 µM (active),3.01 µM (inactive),0.0448 µM (active),0.0041 µM (active),0.00718 µM (active),0.00427 µM (active),0.00439 µM (active),0.00457 µM (active),0.00902 µM (active),0.0276 µM (active),0.415 µM (active)
CCOC(=O)c1c(C)c(C)n2c1NC(=O)C2,> 100 µM (inactive),36.6 µM (inactive),37.2 µM (inactive),> 57 µM (inactive),> 76.2 µM (inactive),55.3 µM (inactive),> 54.3 µM (inactive),39 µM (inactive),20.4 µM (inactive),> 60.5 µM (inactive),> 55.8 µM (inactive),> 70.3 µM (inactive),25.2 µM (inactive),> 53.7 µM (inactive),39.1 µM (inactive),20.8 µM (inactive),> 100 µM (inactive),> 43 µM (inactive),97.1 µM (inactive),> 100 µM (inactive)
